Columns and labels:
Or82a = target: T1, Or82a (Drosophila melanogaster, UniProt P82986); conditions: single strong ligand of the training set; cited from earlier work
T1 sequence (P82986 1-385): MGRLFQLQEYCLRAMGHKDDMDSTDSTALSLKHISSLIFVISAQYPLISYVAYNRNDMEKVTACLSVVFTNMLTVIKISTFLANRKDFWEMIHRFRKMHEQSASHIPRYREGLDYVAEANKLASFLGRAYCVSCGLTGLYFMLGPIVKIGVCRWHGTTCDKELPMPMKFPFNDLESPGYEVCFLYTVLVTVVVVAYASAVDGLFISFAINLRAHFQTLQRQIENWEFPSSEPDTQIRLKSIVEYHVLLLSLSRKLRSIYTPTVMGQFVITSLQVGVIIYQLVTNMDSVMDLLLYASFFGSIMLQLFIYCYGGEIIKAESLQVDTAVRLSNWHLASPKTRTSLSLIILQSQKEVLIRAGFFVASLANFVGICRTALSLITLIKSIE
T1 sequence (Q9VNB5 1-486 partner): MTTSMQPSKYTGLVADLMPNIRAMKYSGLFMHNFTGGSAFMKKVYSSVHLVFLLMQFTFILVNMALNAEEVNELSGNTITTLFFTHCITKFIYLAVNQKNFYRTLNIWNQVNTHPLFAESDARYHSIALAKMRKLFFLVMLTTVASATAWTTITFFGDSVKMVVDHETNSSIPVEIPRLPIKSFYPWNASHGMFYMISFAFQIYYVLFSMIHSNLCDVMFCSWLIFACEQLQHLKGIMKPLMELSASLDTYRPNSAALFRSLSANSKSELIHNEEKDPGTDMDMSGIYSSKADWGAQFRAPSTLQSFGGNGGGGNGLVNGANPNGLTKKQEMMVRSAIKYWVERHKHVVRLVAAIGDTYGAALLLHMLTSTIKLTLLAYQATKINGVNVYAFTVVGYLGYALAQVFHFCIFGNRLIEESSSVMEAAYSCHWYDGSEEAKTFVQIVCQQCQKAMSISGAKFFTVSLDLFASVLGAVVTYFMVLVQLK

CO2 responsive neurons = conditions: […]; averaged across the top 2 responders of the 4 species; cited from earlier work
Or98a, ab7A = target: T2, Or98a, ab7A (Drosophila melanogaster, UniProt Q9VAZ3); test: single-sensillum electrophysiology; format: in vivo; conditions: odorant at 10^-2
T2 construct: The 9 Ors tested are expressed in well-defined olfactory receptor neurons (ORNs) housed within the large and small basiconic sensilla; from tissue; host or cells: D. melanogaster antenna, ab7A olfactory receptor neuron (in vivo recording)
T2 sequence (Q9VAZ3 1-397): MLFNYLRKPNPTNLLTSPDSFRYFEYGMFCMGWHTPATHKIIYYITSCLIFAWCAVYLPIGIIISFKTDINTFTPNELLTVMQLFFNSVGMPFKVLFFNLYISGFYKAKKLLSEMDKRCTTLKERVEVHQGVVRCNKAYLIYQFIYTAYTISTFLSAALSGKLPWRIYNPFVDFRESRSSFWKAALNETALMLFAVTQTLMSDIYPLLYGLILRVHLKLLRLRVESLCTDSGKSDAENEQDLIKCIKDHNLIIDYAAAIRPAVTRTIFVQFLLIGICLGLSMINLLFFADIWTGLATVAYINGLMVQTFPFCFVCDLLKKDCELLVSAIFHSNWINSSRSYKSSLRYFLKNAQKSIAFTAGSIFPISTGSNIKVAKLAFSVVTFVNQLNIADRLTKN
T2 sequence (Q9VNB5 1-486 partner): T1 sequence (Q9VNB5 1-486 partner)
Procedure: The results of the in silico screen are provocative. However in order to verify whether these predictions were meaningful, functional evidence was obtained. In order to validate the success of the in silico predictions the responses of 9 Odor receptors using single-sensillum electrophysiology directly on the Drosophila melanogaster antenna were analyzed. For each Odor receptor several odorants were tested from the top 500 predicted hits. A sampling of ˜192 novel odorants were tested with ˜11-21 novel odorants tested for each receptor, which were scattered somewhat randomly within the top 500 predictions for each receptor, providing a relatively unbiased set of chemical structures.
To test identified compounds any number of biological assays can be used to measure ORN activity in the presence of a putative ligand/compounds. […] For the purpose of testing each of these volatile compounds the compounds were diluted to ˜10^−2 in paraffin oil or distilled water. The 9 Ors tested are expressed in well-defined olfactory receptor neurons (ORNs) housed within the large and small basiconic sensilla (ab1-ab7) on the antenna. A previously identified diagnostic panel of odorants was used to distinguish individual classes of sensilla (ab1-ab7) and therefore identified the sensilla that contained the target Or expressing ORN. […]

SMILES	activation of Or82a (Or82a)	Final Activity (CO2 responsive neurons)	activation of odor receptor (firing rate) (Or98a, ab7A) [spikes/sec]
CC(=O)OC/C=C(\C)CCC=C(C)C [geranyl acetate, reference compound]	activated strongly	0	–
CC(=O)OCC=C(C)C [prenyl acetate]	–	–	> 250
